These results are taken from patent US20060069110A1, “Substituted heterocyclic compounds and methods of use” (priority 2004, published 2006).

The assay relates to THP1 cells (LPS induced TNF release). Kind of assay: Lipopolysaccharide-Activated THP1 Cell TNF Production Assay. The class given is cell-based. The conditions noted are these: Homo sapiens, THP-1; THP1 cells, bacterial LPS, secreted TNF-α after 3 h at 37° C.; read-out: IC50 values in the THP1 cell assay (LPS induced TNF release). The gist of the method: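 THP1 cells at 1E6/mL were treated with 3-fold serial compound dilutions and LPS (1 μg/mL stock) for 3 h at 37 °C. Secreted TNF-α was quantified by electrochemiluminescent sandwich immunoassay. Percent of DMSO control versus concentration was fitted to a 4-parameter equation.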

The structures appear in SMILES notation.

For the compound `C[C@@H](Cc1cccc(CN)c1)Nc1nccc(N(C)c2c[nH]c(=O)c(-c3ccccc3)c2)n1` [Example 168, (S)-5-((2-(1-(3-(Aminomethyl)phenyl)propan-2-ylamino)pyrimidin-4-yl)(methyl)-amino)-3-phenylpyridin-2(1H)-one], the IC50 is at most 20 µM.

`C[C@@H](Cc1cccc(CN)c1)Nc1nccc(N(C)c2c[nH]c(=O)c(-c3ccccc3F)c2)n1` [Example 169]: the IC50 was at most 20 µM.

For the compound `C[C@H](N)c1cccc(C[C@H](C)Nc2nccc(N(C)c3c[nH]c(=O)c(-c4ccccc4)c3)n2)c1` [Example 170, 5-((2-((S)-1-(3-((S)-1-Aminoethyl)phenyl)propan-2-ylamino)pyrimidin-4-yl)-(methyl)amino)-3-phenylpyridin-2(1H)-one], the IC50 is at most 20 µM.

Regarding `CC(Cc1cccc(CN)c1)Nc1nccc(N(C)c2c[nH]c(=O)c(-c3ccccc3)c2)n1` (stereo not drawn) [Example 171, 5-((2-(1-(3-(Aminomethyl)phenyl)propan-2-ylamino)pyrimidin-4-yl)(methyl)-amino)-3-phenylpyridin-2(1H)-one], the IC50 is at most 20 µM.

For the compound `COc1ncc(N(C)c2ccnc(NCCc3ccccc3)n2)cc1-c1ccccc1` [Example 172, N^4-(6-Methoxy-5-phenylpyridin-3-yl)-N^4-methyl-N^2-phenethylpyrimidine-2,4-diamine], the IC50 is at most 20 µM.

As to `CN(c1cc(-c2ccccc2)c(=O)n(C)c1)c1ccnc(NC2CCN(C(=O)OC(C)(C)C)CC2)n1` [Example 173, tert-Butyl 4-(4-(Methyl(1-methyl-6-oxo-5-phenyl-1,6-dihydropyridin-3-yl)amino)pyrimidin-2-ylamino)piperidine-1-carboxylate], the IC50 is at most 20 µM.

On to `CN(c1cc(-c2ccccc2)c(=O)n(C)c1)c1ccnc(NC2CCNCC2)n1` [Example 174, 1-Methyl-5-(methyl(2-(piperidin-4-ylamino)pyrimidin-4-yl)amino)-3-phenylpyridin-2(1H)-one], for which the IC50 was at most 20 µM.

Turning to `CC(=O)N1CCC(Nc2nccc(N(C)c3cc(-c4ccccc4)c(=O)n(C)c3)n2)CC1` [Example 175, 5-((2-(1-Acetylpiperidin-4-ylamino)pyrimidin-4-yl)(methyl)amino)-1-methyl-3-phenylpyridin-2(1H)-one], the IC50 is at most 20 µM.

With `CN(c1cc(-c2ccccc2)c(=O)n(C)c1)c1ccnc(NCCc2ccccc2)n1` [Example 176, 1-Methyl-5-(methyl(2-(phenethylamino)pyrimidin-4-yl)amino)-3-phenylpyridin-2(1H)-one], the IC50 is at most 20 µM.

Regarding `CC(Cc1ccc(F)c(CO)c1)Nc1nccc(N(C)c2cc(-c3ccccc3)c(=O)n(C)c2)n1` (stereo not drawn) [Example 177, 5-((2-(1-(4-Fluoro-3-(hydroxymethyl)phenyl)propan-2-ylamino)pyrimidin-4-yl)(methyl)amino)-1-methyl-3-phenylpyridin-2(1 H)-one], the IC50 was at most 20 µM.

For the compound `C[C@@H](Cc1cccc(CN)c1)Nc1nccc(N(C)c2cc(-c3ccccc3)c(=O)n(C)c2)n1` [Example 178, (S)-5-((2-(1-(3-(Aminomethyl)phenyl)propan-2-ylamino)pyrimidin-4-yl)(methyl)-amino)-1-methyl-3-phenylpyridin-2(1H)-one], the IC50 is at most 20 µM.

Turning to `C[C@@H](Cc1cccc([C@@H](C)N)c1)Nc1nccc(N(C)c2cc(-c3ccccc3)c(=O)n(C)c2)n1` [Example 179, 5-((2-((S)-1-(3-((R)-1-Aminoethyl)phenyl)propan-2-ylamino)pyrimidin-4-yl)(methyl)amino)-1-methyl-3-phenylpyridin-2(1H)-one], the IC50 was at most 20 µM.

`CC(Cc1cccc(CN)c1)Nc1nccc(N(C)c2cc(N)nc(-c3ccccc3)n2)n1` (stereo not drawn) [Example 181, N^4-(2-(1-(3-(Aminomethyl)phenyl)propan-2-ylamino)pyrimidine-4-yl)-N^4-methyl-2-phenylpyrimidine-4,6-diamine]: the IC50 is at most 20 µM.

As for `Clc1nnc(Nc2ccnc(N3CCCC3Cc3ccccc3)n2)cc1-c1ccccc1` (stereo not drawn) [Example 182, N-(2-(2-Benzylpyrrolidin-1-yl)pyrimidin-4-yl)-6-chloro-5-phenylpyridazin-3-amine], the IC50 is at most 20 µM.

For `Clc1ccccc1CCNc1nccc(Nc2cc(-c3ccccc3)c(Cl)nn2)n1` [Example 183, N^2-(2-Chlorophenethyl)-N4-(6-chloro-5-phenylpyridazin-3-yl)pyrimidine-2,4-di-amine], the IC50 was at most 20 µM.

Consider `CN(c1ccnc(NCCc2ccccc2)n1)c1nccc(-c2ccccc2)n1` [Example 184, N^4-Methyl-N^2-phenethyl-N^4-(4-phenylpyrimidin-2-yl)pyrimidine-2,4-diamine], for which the IC50 is at most 20 µM.

For `CN(c1ccnc(NCCc2ccccc2Cl)n1)c1nccc(-c2ccccc2)n1` [Example 185, N^2-(2-Chlorophenethyl)-N^4-methyl-N^4-(4-phenylpyrimidin-2-yl)pyrimidine-2,4-diamine], the IC50 is at most 20 µM.

Turning to `CN(c1ccnc(NCCc2ccccc2)n1)c1nccc(C(C)(C)C)n1` [Example 186, N^4-(4-tert-Butylpyrimidin-2-yl)-N^4-methyl-N^2-phenethylpyrimidine-2,4-diamine], the IC50 was at most 20 µM.

`CN(c1ccnc(-c2ccccc2)n1)c1ccnc(N2CC[C@H]2Cc2ccccc2)n1` [N-methyl-2-phenyl-N-(2-((2R)-2-(phenylmethyl)-1-azetidinyl)-4-pyrimidinyl)-4-pyrimidinamine]: the IC50 was at most 20 µM.

In the case of `Cc1nccn1-c1nccc(N(C)c2ccnc(-c3ccccc3)n2)n1` [N-methyl-N-(2-(2-methyl-1H-imidazol-1-yl)pyrimidin-4-yl)-2-phenylpyrimidin-4-amine], the IC50 was at most 20 µM.

In the case of `CN(c1cnc(OCc2ccccc2)c(-c2ccccc2)c1)c1ccnc(NC2CCNCC2)n1` [N^4-(6-(Benzyloxy)-5-phenylpyridin-3-yl)-N^4-methyl-N^2-(piperidin-4-yl)-pyrimidine-2,4-diamine], the IC50 was at most 20 µM.
